Data taken from ChEMBL document CHEMBL1121827, “Showdomycin analogues: synthesis and antitumor evaluation” (J Med Chem, 1981).

Assays:
[1] = In vivo antitumor activity expressed as lethal dose with daily administration schedule against P388 murine leukemia cells; type: ADME, organism-based; conditions: mouse
L1210 [2] = assay: Cytotoxicity inhibition against cultured L1210 cells at 200 uM; type: functional; conditions: Mus musculus
L1210 [3] = assay: Cytotoxicity inhibition against cultured L1210 cells at 400 uM; type: functional; conditions: Mus musculus

| SMILES | LD50 [1] | inhibition at 200 µM (L1210 [2]) | inhibition at 400 µM (L1210 [3]) |
| --- | --- | --- | --- |
| CC(=O)OC[C@H]1O[C@@H](N2C(=O)C=CC2=O)[C@H](OC(C)=O)[C@@H]1OC(C)=O | 10 mg/kg | – | – |
| O=C1C=CC(=O)N1C1O[C@H](CO)[C@@H](O)[C@H]1O (stereo partly specified) | 35 mg/kg | – | – |
| O=C1C=C(Cl)C(=O)N1C1O[C@H](CO)[C@@H](O)[C@H]1O (stereo partly specified) | 18 mg/kg | – | – |
| CC1=CC(=O)N(C2O[C@H](CO)[C@@H](O)[C@H]2O)C1=O (stereo partly specified) | 100 mg/kg | 95% | 85% |
